Measured values taken from PubChem BioAssay (NCI).
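Protocol summary: plate cells (96-well), add compound at 5 concentrations, incubate 48 h, interpolate endpoints linearly. Abbreviation: GI50, concentration required for 50% inhibition of growth. TGI is the concentration that stops growth completely.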

Key:
Experiment in all cases: growth of human tumour cells (NCI), 48 h
SF-268 CNS = test system: SF-268 CNS
NCI-H23 lung = test system: NCI-H23 lung
HOP-92 NSCLC = test system: HOP-92 NSCLC
UACC-62 melanoma = test system: UACC-62 melanoma
KM12 colon = test system: KM12 colon
MCF7 breast = test system: MCF7 breast
HOP-62 NSCLC = test system: HOP-62 NSCLC
UO-31 renal = test system: UO-31 renal
MDA-MB-435 = test system: MDA-MB-435
HT29 colon = test system: HT29 colon
NCI/ADR-RES ovarian = test system: NCI/ADR-RES ovarian
MOLT-4 leukemia = test system: MOLT-4 leukemia
EKVX NSCLC = test system: EKVX NSCLC
A549 NSCLC = test system: A549 NSCLC
UACC-257 melanoma = test system: UACC-257 melanoma
BT-549 breast = test system: BT-549 breast
SK-MEL-5 melanoma = test system: SK-MEL-5 melanoma
SNB-19 CNS = test system: SNB-19 CNS
IGROV1 ovarian = test system: IGROV1 ovarian
MDA-MB-231 breast = test system: MDA-MB-231 breast
DU-145 prostate = test system: DU-145 prostate
HCT-116 colon = test system: HCT-116 colon
RPMI-8226 leukemia = test system: RPMI-8226 leukemia
K-562 leukemia = test system: K-562 leukemia
SK-MEL-2 melanoma = test system: SK-MEL-2 melanoma
TK-10 renal = test system: TK-10 renal
OVCAR-5 ovarian = test system: OVCAR-5 ovarian
OVCAR-3 ovarian = test system: OVCAR-3 ovarian
RXF 393 renal = test system: RXF 393 renal
OVCAR-8 ovarian = test system: OVCAR-8 ovarian
OVCAR-4 ovarian = test system: OVCAR-4 ovarian
COLO 205 colon = test system: COLO 205 colon
SR leukemia = test system: SR leukemia
NCI-H522 lung = test system: NCI-H522 lung
SW-620 colon = test system: SW-620 colon
T-47D breast = test system: T-47D breast
M14 melanoma = test system: M14 melanoma
SF-295 CNS = test system: SF-295 CNS
NCI-H460 lung = test system: NCI-H460 lung
SK-OV-3 ovarian = test system: SK-OV-3 ovarian
CAKI-1 renal = test system: CAKI-1 renal
SK-MEL-28 melanoma = test system: SK-MEL-28 melanoma
LOX IMVI melanoma = test system: LOX IMVI melanoma
SF-539 CNS = test system: SF-539 CNS
PC-3 prostate = test system: PC-3 prostate
U251 CNS = test system: U251 CNS
HS 578T breast = test system: HS 578T breast
CCRF-CEM leukemia = test system: CCRF-CEM leukemia
786-0 renal = test system: 786-0 renal
MALME-3M melanoma = test system: MALME-3M melanoma
ACHN renal = test system: ACHN renal
HCT-15 colon = test system: HCT-15 colon
HCC-2998 colon = test system: HCC-2998 colon
SN12C renal = test system: SN12C renal

Cc1cccc(C(=O)/C=C/SC(=NC#N)SCc2ccccc2)c1
GI50 (SF-268 CNS): 28.8 µM
TGI (SF-268 CNS): > 100 µM
GI50 (NCI-H23 lung): 20.9 µM
TGI (NCI-H23 lung): 47 µM
GI50 (HOP-92 NSCLC): 12.3 µM
TGI (HOP-92 NSCLC): 47.9 µM
GI50 (UACC-62 melanoma): 19.4 µM
TGI (UACC-62 melanoma): 40.7 µM
GI50 (KM12 colon): 31.6 µM
TGI (KM12 colon): > 100 µM
GI50 (MCF7 breast): 34.3 µM
TGI (MCF7 breast): > 100 µM
GI50 (HOP-62 NSCLC): 23.2 µM
TGI (HOP-62 NSCLC): 45.4 µM
GI50 (UO-31 renal): 30.9 µM
TGI (UO-31 renal): 89 µM
GI50 (MDA-MB-435): 23.1 µM
TGI (MDA-MB-435): 72.1 µM
GI50 (HT29 colon): 56.5 µM
TGI (HT29 colon): > 100 µM
GI50 (NCI/ADR-RES ovarian): 24.4 µM
TGI (NCI/ADR-RES ovarian): 64.5 µM
GI50 (MOLT-4 leukemia): 6.72 µM
TGI (MOLT-4 leukemia): > 100 µM
GI50 (EKVX NSCLC): 28 µM
TGI (EKVX NSCLC): 63.2 µM
GI50 (A549 NSCLC): 23.7 µM
TGI (A549 NSCLC): 67.7 µM
GI50 (UACC-257 melanoma): 18.1 µM
TGI (UACC-257 melanoma): 35.9 µM
GI50 (BT-549 breast): 16.1 µM
TGI (BT-549 breast): 36.7 µM
GI50 (SK-MEL-5 melanoma): 14.7 µM
TGI (SK-MEL-5 melanoma): 32.9 µM
GI50 (SNB-19 CNS): 36.1 µM
TGI (SNB-19 CNS): > 100 µM
GI50 (IGROV1 ovarian): 21.4 µM
TGI (IGROV1 ovarian): 61.5 µM
GI50 (MDA-MB-231 breast): 20 µM
TGI (MDA-MB-231 breast): 41.5 µM
GI50 (DU-145 prostate): 19.7 µM
TGI (DU-145 prostate): 46.4 µM
GI50 (HCT-116 colon): 27.2 µM
TGI (HCT-116 colon): > 100 µM
GI50 (RPMI-8226 leukemia): 4.06 µM
TGI (RPMI-8226 leukemia): > 100 µM
GI50 (K-562 leukemia): 22 µM
TGI (K-562 leukemia): > 100 µM
GI50 (SK-MEL-2 melanoma): 48.5 µM
TGI (SK-MEL-2 melanoma): > 100 µM
GI50 (TK-10 renal): 13.1 µM
TGI (TK-10 renal): 32 µM
GI50 (OVCAR-5 ovarian): 19.4 µM
TGI (OVCAR-5 ovarian): 38.1 µM
GI50 (OVCAR-3 ovarian): 16.7 µM
TGI (OVCAR-3 ovarian): 89.7 µM
GI50 (RXF 393 renal): 22.7 µM
TGI (RXF 393 renal): 57.6 µM
GI50 (OVCAR-8 ovarian): 35.6 µM
TGI (OVCAR-8 ovarian): > 100 µM
GI50 (OVCAR-4 ovarian): > 100 µM
TGI (OVCAR-4 ovarian): > 100 µM
GI50 (COLO 205 colon): 33.6 µM
TGI (COLO 205 colon): > 100 µM
GI50 (SR leukemia): 3.99 µM
TGI (SR leukemia): > 100 µM
GI50 (NCI-H522 lung): 27.1 µM
TGI (NCI-H522 lung): > 100 µM
GI50 (SW-620 colon): 6.45 µM
TGI (SW-620 colon): > 100 µM
GI50 (T-47D breast): 21.6 µM
TGI (T-47D breast): > 100 µM
GI50 (M14 melanoma): 24.8 µM
TGI (M14 melanoma): 59.1 µM
GI50 (SF-295 CNS): 21.2 µM
TGI (SF-295 CNS): 88.6 µM
GI50 (NCI-H460 lung): 36.5 µM
TGI (NCI-H460 lung): > 100 µM
GI50 (SK-OV-3 ovarian): > 100 µM
TGI (SK-OV-3 ovarian): > 100 µM
GI50 (CAKI-1 renal): 13.1 µM
TGI (CAKI-1 renal): 39.3 µM
GI50 (SK-MEL-28 melanoma): 25.8 µM
TGI (SK-MEL-28 melanoma): 67 µM
GI50 (LOX IMVI melanoma): 26.9 µM
TGI (LOX IMVI melanoma): > 100 µM
GI50 (SF-539 CNS): 6.67 µM
TGI (SF-539 CNS): 31.7 µM
GI50 (PC-3 prostate): 16.4 µM
TGI (PC-3 prostate): 50.8 µM
GI50 (U251 CNS): 22.5 µM
TGI (U251 CNS): 99.4 µM
GI50 (HS 578T breast): 27.9 µM
TGI (HS 578T breast): 94.8 µM
GI50 (CCRF-CEM leukemia): 3.23 µM
TGI (CCRF-CEM leukemia): > 100 µM
GI50 (786-0 renal): 19.1 µM
TGI (786-0 renal): 40.5 µM
GI50 (MALME-3M melanoma): 12.3 µM
TGI (MALME-3M melanoma): 32 µM
GI50 (ACHN renal): 25.6 µM
TGI (ACHN renal): 67 µM
GI50 (HCT-15 colon): 39.1 µM
TGI (HCT-15 colon): > 100 µM
GI50 (HCC-2998 colon): 19.3 µM
TGI (HCC-2998 colon): 39.4 µM
GI50 (SN12C renal): 20.4 µM
TGI (SN12C renal): 41.3 µM
